The values below come from patent US8628771B2, “CA IX-specific inhibitors” (Institute of Virology Slovak Academy of Sciences, priority 2002, dated 2014).

Where a name gives a salt, the structure may show the parent alone. Read-outs that look alike come from different tables or passages of the source.

The target in data set [1] is T1, hCA I (Homo sapiens, UniProt P00915).
T1 construct: made in house; host or cells: Escherichia coli BL21 (DE3)
The data set is described as follows: CA esterase activity assay, isozyme hCA I. The class given is biochemical.
Method: (§1) Human CA I and CA II cDNAs were expressed in Escherichia coli strain BL21 (DE3) from the plasmids pACA/hCA I and pACA/hCA II described by Lindskog's group [54].
(§2) Non-enzymatic hydrolysis rates were always subtracted from the observed rates. […] Inhibitor and enzyme solutions were preincubated together for 10 min at room temperature prior to assay, in order to allow for the formation of the E-I complex. The inhibition constant KI was determined as described in references [44, 76].

The target of data set [2] is hCA IX (Homo sapiens, UniProt Q16790). The data set can be described thus: CA CO2 hydrase activity assay, tumor-associated isozyme hCA IX.
Method: An SX.18MV-R Applied Photophysics stopped-flow instrument has been used for assaying the CA CO2 hydration activity assays [44]. […] Inhibitor and enzyme solutions were preincubated together for 10 min at room temperature prior to assay, in order to allow for the formation of the E-I complex.
For data set [3], the system named is human red cells. The following applies: for [sulfonamide] in red blood cells, EI / [sulfonamide] in red blood cells, ES / [sulfonamide] in red blood cells, HPLC: human, 2 mM, pH 7.4.
Data set [4] deals with T2, hCA II (Homo sapiens, UniProt P00918).
T2 construct: made in house; host or cells: Escherichia coli BL21 (DE3)
The data set can be described thus: CA esterase activity assay, isozyme hCA II. The class given is biochemical.
Method: as §1, §2

Data set [5] deals with T3, bCA IV (Bos taurus, UniProt Q95323).
T3 construct: CA IV was isolated from bovine lung microsomes as described by Maren et al; from tissue; host or cells: bovine lung microsomes
T3 sequence (Q95323 19-284): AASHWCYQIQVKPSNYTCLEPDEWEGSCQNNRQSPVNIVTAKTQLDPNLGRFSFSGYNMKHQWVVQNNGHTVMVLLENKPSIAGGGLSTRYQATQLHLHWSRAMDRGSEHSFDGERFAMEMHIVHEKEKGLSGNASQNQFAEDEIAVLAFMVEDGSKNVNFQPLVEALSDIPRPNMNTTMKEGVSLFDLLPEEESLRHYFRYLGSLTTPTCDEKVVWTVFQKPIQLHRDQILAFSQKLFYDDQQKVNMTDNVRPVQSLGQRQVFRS
The data set is described as follows: CA esterase activity assay, isozyme bCA IV. It is filed as biochemical, bovine.

Where [6] appears, read: Table 3, human (cloned) isozymes, esterase assay method, read-out: KI hCA I.
Where [7] appears, read: read-out: KI hCA IX, Table 3, catalytic domain of the human, cloned isozyme, CO2 hydrase assay method.
Where [8] appears, read: Table 3, human (cloned) isozymes, esterase assay method, read-out: KI hCA II.
Where [9] appears, read: Table 3, from bovine lung microsomes, esterase assay method, read-out: KI bCA IV.
The mark [10] stands for this setting: Tables 1 and 3, read-out: KI against CA II.
Where [11] appears, read: Table 3, read-out: KI against CA I.
Setting [12] is: Table 3, read-out: KI against CA IV.
Setting [13] is: Table 2, human (cloned) isozymes, read-out: KI hCA I.
The mark [14] stands for this setting: KI against CA IX, text discussion of Tables 1-3.
Setting [15] is: read-out: KI hCA IX, Table 2, catalytic domain of the human, cloned isozyme.
Where [16] appears, read: Table 2, human (cloned) isozymes, read-out: KI hCA II.
Setting [17] is: Table 2, from bovine lung microsomes, read-out: KI bCA IV.

T1 sequence (P00915 whole entry): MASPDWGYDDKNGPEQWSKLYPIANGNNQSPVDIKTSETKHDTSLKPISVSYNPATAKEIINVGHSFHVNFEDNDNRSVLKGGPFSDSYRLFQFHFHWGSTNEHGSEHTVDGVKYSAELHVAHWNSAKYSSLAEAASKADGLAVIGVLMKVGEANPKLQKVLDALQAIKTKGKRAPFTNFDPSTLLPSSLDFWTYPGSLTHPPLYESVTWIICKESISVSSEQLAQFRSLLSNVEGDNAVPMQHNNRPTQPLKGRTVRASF

As usually defined, the melting point is the temperature of the solid-liquid transition. `CCCc1cc(-c2ccccc2)cc(-c2ccccc2)[n+]1-c1ccc(S(=O)(=O)Nc2nnc(S(N)(=O)=O)s2)cc1` (as salt: perchlorate) [Compound 82, 1-N-[5-Sulfamoyl-1,3,4-thiadiazol-2-yl-(aminosulfonyl-4-phenyl)]-2-n-propyl-4,6-diphenylpyridinium perchlorate]: the melting point was 214 to 215 °C.
One may read the Ki as a measure of affinity in units of concentration, obtained from inhibition or displacement. For the molecule `Cc1cc(C)[n+](-c2ccc(S(=O)(=O)Nc3nnc(S(N)(=O)=O)s3)cc2)c(C)c1C` [Compound 89, 1-N-[5-Sulfamoyl-1,3,4-thiadiazol-2-yl-(aminosulfonyl-4-phenyl)]-2,3,4,6-tetramethylpyridinium perchlorate], the inhibition constant (Ki) in data set [1] (setting [6]) is 3 nM; in data set [2], 3 to 9 nM; in data set [2] (setting [7]), 5 nM; in data set [4] (setting [8]), 0.3 nM; in data set [5] (setting [9]) it was 2.4 nM. Further, the “amount detected within the blood red cells (membrane penetration)” value in data set [3] is listed as “detected only in very small amounts”. Also, the results for the “[sulfonamide] in red blood cells, EI” value in data set [3] (30 min) and in data set [3] (60 min) were 0.5 µM and 0.4 µM, respectively. The “[sulfonamide] in red blood cells, ES” value in data set [3] (30 min) is 0.2 µM; in data set [3] (60 min), 0.6 µM. Besides, the “[sulfonamide] in red blood cells, HPLC” value in data set [3] (30 min) and in data set [3] (60 min) was 0.3 µM each time.
As for `CCc1cc(-c2ccccc2)cc(CC)[n+]1-c1ccc(S(=O)(=O)Nc2nnc(S(N)(=O)=O)s2)cc1` [Compound 76, 1-N-[5-Sulfamoyl-1,3,4-thiadiazol-2-yl-(aminosulfonyl-4-phenyl)]-2,6-diethyl-4-phenylpyridinium perchlorate], the Ki in data set [1] (setting [6]) was 4 nM; in data set [2] it was 3 to 9 nM; in data set [2] (setting [7]), 9 nM; in data set [4] (setting [8]) it was 0.21 nM; in data set [4] (setting [10]) it was 0.2 to 1.61 nM; in data set [5] (setting [9]) it was 2.3 nM. Further, the “amount detected within the blood red cells (membrane penetration)” value in data set [3] was “detected only in very small amounts”. In addition, the figures for the “[sulfonamide] in red blood cells, EI” value in data set [3] (30 min) and in data set [3] (60 min) were 1.0 µM and 1.1 µM, respectively. For the same molecule, the “[sulfonamide] in red blood cells, ES” value is 1.1 µM in data set [3] (30 min) and 1.2 µM in data set [3] (60 min). For the same molecule, the “[sulfonamide] in red blood cells, HPLC” value came out at 1.0 µM in data set [3] (30 min) and 1.1 µM in data set [3] (60 min).
For `CCCc1cc(-c2ccccc2)cc(CCC)[n+]1-c1ccc(S(=O)(=O)Nc2nnc(S(N)(=O)=O)s2)cc1` [Compound 77, 1-N-[5-Sulfamoyl-1,3,4-thiadiazol-2-yl-(aminosulfonyl-4-phenyl)]-2,6-di-n-propyl-4-phenylpyridinium perchlorate], the Ki is 9 nM in data set [1] (setting [6]); 7 to 12 nM in data set [1] (setting [11]); 12 to 35 nM in data set [2]; 35 nM in data set [2] (setting [7]); 3.45 nM in data set [4] (setting [8]); 3.13 to 5.96 nM in data set [4] (setting [10]). Further, the inhibitory constant (Ki) is 8.1 nM in data set [5] (setting [9]) and 5.2 to 10.3 nM in data set [5] (setting [12]).
With `CCc1cc(-c2ccccc2)cc(CC)[n+]1-c1ccc(S(N)(=O)=O)cc1` [Compound 29], the Ki in data set [1] (setting [13]) was 6000 nM; in data set [2] (setting [14]), 6 to 54 nM; in data set [2] (setting [15]), 43 nM; in data set [4] (setting [16]), 60 nM; in data set [5] (setting [17]), 182 nM.
Take `Cc1c(-c2ccccc2)cc(C)[n+](-c2ccc(S(=O)(=O)Nc3nnc(S(N)(=O)=O)s3)cc2)c1C` [Compound 90]: the Ki in data set [1] (setting [6]) was 3 nM; in data set [2] (setting [14]) it was 12 to 35 nM; in data set [2] (setting [7]) it was 15 nM; in data set [4] (setting [8]) it was 1.24 nM; in data set [5] (setting [9]), 5.2 nM; in data set [5] (setting [12]), 5.2 to 10.3 nM.
As for `Cc1cc(C(C)C)[n+](CCc2ccc(S(N)(=O)=O)cc2)c(C(C)C)c1` [Compound 57], the Ki in data set [1] (setting [13]) worked out at 3000 nM; in data set [2] (setting [15]), 49 nM; in data set [4] (setting [16]), 20 nM; in data set [5] (setting [17]), 70 nM.
On to `CCCc1cc(-c2ccccc2)cc(-c2ccccc2)[n+]1CCc1ccc(S(N)(=O)=O)cc1` [Compound 64], for which the Ki in data set [1] (setting [13]) worked out at 112000 nM; in data set [2] (setting [15]), 84 nM; in data set [4] (setting [16]), 270 nM; in data set [5] (read-out: KI bCA IV), 1060 nM.
In the case of `CCCc1cc(-c2ccccc2)cc(CCC)[n+]1CCc1ccc(S(N)(=O)=O)cc1` [Compound 60], the Ki was 7000 nM in data set [1] (setting [13]); 160 to 450 nM in data set [2]; 205 nM in data set [2] (setting [15]); 42 nM in data set [4] (setting [16]); 82 nM in data set [5] (setting [17]).
With `NS(=O)(=O)c1nnc(NS(=O)(=O)c2ccc(-[n+]3c(-c4ccccc4)cc(-c4ccccc4)cc3-c3ccccc3)cc2)s1` [Compound 87, 1-N-[5-Sulfamoyl-1,3,4-thiadiazol-2-yl-(aminosulfonyl-4-phenyl)]-2,4,6-triphenyl-pyridinium perchlorate], the Ki in data set [1] (setting [6]) is 5 nM; in data set [2], 12 to 35 nM; in data set [2] (setting [7]) it was 12 nM; in data set [4] (setting [8]), 5.96 nM; in data set [4] (setting [10]), 3.13 to 5.96 nM; in data set [5] (setting [9]) it was 5.6 nM. Also, the Ki in data set [5] (setting [12]) was in the range of 5.2 to 10.3 nM.
With `Cc1cc(C)[n+](-c2ccc(S(N)(=O)=O)cc2)c(C)c1` [Compound 27], the Ki is 10000 nM in data set [1] (setting [13]); 160 to 450 nM in data set [2]; 165 nM in data set [2] (setting [15]); 150 nM in data set [4] (setting [16]); 290 nM in data set [5] (setting [17]).
As to `Cc1cc(C)[n+](-c2ccc(S(=O)(=O)Nc3nnc(S(N)(=O)=O)s3)cc2)c(C)c1` [Compound 71, 1-N-[5-Sulfamoyl-1,3,4-thiadiazol-2-yl-(aminosulfonyl-4-phenyl)]-2,4,6-trimethyl-pyridinium perchlorate], the Ki in data set [1] (setting [6]) is 4 nM; in data set [2], 3 to 9 nM; in data set [2] (setting [7]) it was 3 nM; in data set [4] (setting [8]), 0.26 nM; in data set [4] (read-out: KI against CA II), 0.2 to 1.61 nM; in data set [5] (setting [9]), 2.1 nM. Also, in data set [2] (ratio of KI values), the “times more effective than benzolamide in inhibiting CA IX” value is given as roughly 13. In data set [3], the “amount detected within the blood red cells (membrane penetration)” value is listed as “detected only in very small amounts”. Besides, the “[sulfonamide] in red blood cells, EI” value turned out to be 0.5 µM in data set [3] (30 min) and 0.3 µM in data set [3] (60 min). Further, the “[sulfonamide] in red blood cells, ES” value in data set [3] (30 min) and in data set [3] (60 min) was 0.5 µM throughout. Also, the results for the “[sulfonamide] in red blood cells, HPLC” value in data set [3] (30 min) and in data set [3] (60 min) were 0.3 µM and 0.4 µM, respectively.
For `CCCc1cc(-c2ccccc2)cc(CCC)[n+]1Cc1ccc(S(N)(=O)=O)cc1` [Compound 44], the inhibitory constant (Ki) in data set [1] (setting [13]) was 24000 nM; in data set [2], 160 to 450 nM; in data set [2] (setting [15]) it was 230 nM; in data set [4] (setting [16]) it was 90 nM; in data set [5] (setting [17]), 163 nM.
For the molecule `CCc1cc(-c2ccccc2)cc(CC)[n+]1Cc1ccc(S(N)(=O)=O)cc1` [Compound 43], the Ki in data set [1] (setting [13]) came to 2000 nM; in data set [2] (setting [15]), 29 nM; in data set [4] (setting [16]), 21 nM; in data set [5] (setting [17]) it was 52 nM.
Take `Cc1cc(-c2ccccc2)cc(-c2ccccc2)[n+]1-c1ccc(S(=O)(=O)Nc2nnc(S(N)(=O)=O)s2)cc1` [Compound 80, 1-N-[5-Sulfamoyl-1,3,4-thiadiazol-2-yl-(aminosulfonyl-4-phenyl)]-2-methyl-4,6-diphenylpyridinium perchlorate]: the Ki in data set [1] (setting [6]) is 4 nM; in data set [2], 12 to 35 nM; in data set [2] (setting [7]), 24 nM; in data set [4] (setting [8]) it was 1.21 nM; in data set [4] (setting [10]), 0.2 to 1.61 nM; in data set [5] (setting [9]) it was 3 nM.
Take `Cc1cc(C)[n+](Cc2ccc(S(N)(=O)=O)cc2)c(C)c1C` [Compound 54]: the Ki in data set [1] (setting [13]) was 3000 nM; in data set [2] (setting [14]), 6 to 54 nM; in data set [2] (setting [15]), 35 nM; in data set [4] (read-out: KI hCA II), 30 nM; in data set [5] (setting [17]), 51 nM.
For the molecule `CCCCc1cc(-c2ccccc2)cc(-c2ccccc2)[n+]1Cc1ccc(S(N)(=O)=O)cc1.[O-][Cl+3]([O-])([O-])[O-]` [Compound 50], the Ki was 300000 nM in data set [1] (setting [13]), 135 nM in data set [2] (setting [15]), 595 nM in data set [4] (setting [16]) and 2100 nM in data set [5] (setting [17]).
Take `Cc1cc(C)[n+](Cc2ccc(S(N)(=O)=O)cc2)c(C(C)C)c1` [Compound 40]: the Ki in data set [1] (setting [13]) stood at 6000 nM; in data set [2] (setting [15]) it was 42 nM; in data set [4] (setting [16]), 50 nM; in data set [5] (setting [17]) it was 80 nM.
Consider `NS(=O)(=O)c1ccc(CC[n+]2c(-c3ccccc3)cccc2-c2ccccc2)cc1` [Compound 69], for which the Ki in data set [1] (setting [13]) is 265000 nM; in data set [2] it was 64 to 135 nM; in data set [2] (setting [15]), 81 nM; in data set [4] (read-out: KI hCA II), 420 nM; in data set [5] (setting [17]), 1900 nM.
For `Cc1cc(C(C)(C)C)[n+](-c2ccc(S(=O)(=O)Nc3nnc(S(N)(=O)=O)s3)cc2)c(C(C)(C)C)c1` [Compound 74], the Ki in data set [1] (setting [6]) is 11 nM; in data set [1] (setting [11]) it was 7 to 12 nM; in data set [2] it was 12 to 35 nM; in data set [2] (setting [7]), 34 nM; in data set [4] (setting [8]) it was 3.13 nM; in data set [4] (setting [10]), 3.13 to 5.96 nM. Moreover, the Ki is 9.4 nM in data set [5] (setting [9]) and 5.2 to 10.3 nM in data set [5] (setting [12]).
